Reference: the supplement of paper PMC10307832

Assays:
Experiment in all cases: relative viability (nuclei count vs DMSO), 5 days (fraction); higher = more cells survive
[1] = compound: C1CC2=C(C1)C=C(C=C2)OC3=NC(=C4C(=N3)N(C=N4)CC5=CC=C(C=C5)C6=CC=CC=C6)N[C@@H](CC7=CC=CC=C7)CO [QS11]
Method in brief: (§1)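 Acceptance criteria were a control CV below 25% and at least one doubling per plate. Lung cancer cell lines in 1536-well plates got five library-drug doses (not always all listed) √10 apart by pinning and were left 5 days with no medium change. Viability divides treated-well nuclei by vehicle-well nuclei and is the median across plates. Nuclei were counted by MetaXpress from 4× Hoechst images.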

[2] = compound: CC1=C(C=C(C=C1)NC(=O)C2=CC(=CC=C2)C(C)(C)C#N)NC3=CC4=C(C=C3)N=CN(C4=O)C [AZ628]
Method in brief: as §1

[3] = compound: C[As](C)SC[C@H](NC(=O)CC[C@H](N)C(=O)O)C(=O)NCC(=O)O [Darinaparsin]
Method in brief: as §1

[4] = compound: CC1=C(C=C(C=C1)NC(=O)C2=CC(=CC=C2)C(C)(C)C#N)NC3=CC4=C(C=C3)N=CN(C4=O)C [AZ628] + C[C@@H](Oc1cc(-c2cnn(C3CCNCC3)c2)cnc1N)c1c(Cl)ccc(F)c1Cl [Crizotinib] (partner 1 µM)
Method in brief: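 The day after seeding in 1536-well plates, lung cancer cell lines were treated by pin tool with a single drug, or with a fixed anchor-drug dose together with five library-drug doses (not always all listed) in √10 steps. After 5 days, a combined fix-and-stain solution (final 0.05% Triton X-100, 1% formaldehyde, 1 ug/ml Hoechst) was added. Nuclei counted on 4× images gave relative viability as treated counts over vehicle counts, reported as the median of duplicate plates.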

Row | Cell Line | relative viability ([1]; 0.253 µM) | relative viability ([1]; 0.8 µM) | relative viability ([1]; 2.53 µM) | relative viability ([1]; 8 µM) | relative viability ([2]; 0.08 µM) | relative viability ([2]; 0.253 µM) | relative viability ([2]; 0.8 µM) | relative viability ([2]; 2.53 µM) | relative viability ([2]; 8 µM) | relative viability ([3]; 0.08 µM) | relative viability ([3]; 0.8 µM) | relative viability ([3]; 2.53 µM) | relative viability ([3]; 8 µM) | relative viability ([4]; first compound 0.08 µM) | relative viability ([4]; first compound 0.8 µM) | relative viability ([4]; first compound 2.53 µM) | relative viability ([4]; first compound 8 µM) | relative viability ([1]; 0.08 µM) | relative viability ([4]; first compound 0.253 µM)
1 | ChaGo-K-1 | 1 | 1.11 | 1.09 | 1.14 | 1.14 | 0.965 | 0.984 | 1.06 | 1.01 | 1.07 | 1.01 | 0.949 | 1.03 | 1.18 | 1.15 | 1.11 | 1.16 |  | 
2 | LCLC-103H | 1 | 0.749 | 0.988 | 1.05 | 0.99 | 0.891 | 1.07 | 0.998 | 0.903 | 1.15 | 0.923 | 0.976 | 1.15 | 1.13 | 1.11 | 1.09 | 1.01 | 1.01 | 1.08
3 | ABC-1 | 0.957 | 0.895 | 1.17 | 1.15 | 1.12 | 0.727 | 0.873 | 0.793 | 0.767 | 0.952 | 0.956 | 0.928 | 0.968 | 1.37 | 0.844 | 1.02 | 0.808 | 1 | 1.25
4 | NCI-H1563 | 1.02 | 0.965 | 1.12 | 0.971 | 0.997 | 0.925 | 0.991 | 0.952 | 1.05 | 1.05 | 0.948 | 0.996 | 1.04 | 0.892 | 0.872 | 0.833 | 0.938 | 0.951 | 0.825
5 | SW 1573 | 0.961 | 1.01 | 0.896 | 0.655 | 0.984 | 0.863 | 0.696 | 0.812 | 0.564 | 1.21 | 0.971 | 0.966 | 1.19 | 0.664 | 0.707 | 0.598 | 0.425 | 1.04 | 0.587
